Data on 26 compounds can be found in patent publication US20260297092A1, “PYRAZOLOPYRIMIDINE DERIVATIVES AS INHIBITORS OF NLRP3” (Takeda Pharmaceutical Company Limited, priority 2023, published 2026).

The first assay deals with NLRP3 inflammasome (IL-1β production in THP-1 cells). The assay is described as follows: IL-1β TR-FRET Assay (percentage of inhibition at 300 nM, 6 μM or 10 μM). Format: cell-based, human. Conditions: Homo sapiens, THP-1, 300 nM, LPS priming, ATP activation, read-out: IL-1β inhibitory rate at 300 nM (%). The procedure:
The biological activity of the compound of Formula 1 with respect to NLRP3 was determined using the following in vitro method.
IL-1β TR-FRET Assay (reported as percentage of inhibition at 300 nM, 6 μM or 10 μM)
Monocytic THP-1 cells (ATCC: TIB-202) were maintained in accordance with the provider's instructions in RPMI media (Life Technologies, Cat #A10491-01); RPMI was supplemented with 10% heat inactivated fetal bovine serum (Corning, Cat #35-010-CV). The cells were differentiated into macrophages by the addition of 25 ng/mL IFN-γ (PeproTech, Cat #AF-300-02-100UG) for 24 hours at 37° C./5% CO2. Media was exchanged with fresh media with no FBS, and the cells were treated with 50 ng/mL LPS (priming step) (LPS-EK: Invivogen, Cat #tlrl-peklps). The cells were plated at 20,000 cells per well in 384-well flat-bottom cell culture plates (FALCON, Cat #353962) and were incubated for 24 hours at 37° C./5% CO2. Compounds were serially diluted (half log or 5-fold dilutions) with DMSO and were finally diluted with Media with no FBS. The compounds were added to the cells in 384-well plates (added in 1:3) and then the plates were incubated for 30 minutes at 37° C./5% CO2. The NLRP3 inflammasome was activated with the addition of 20 mM ATP (Sigma Cat #A3377-25G) and the cells were incubated for 2 hours at 37° C./5% CO2. At the end of the incubation period, 30 μL supernatant was transferred to another 384-well plate and mixed on a plate shaker for 1 minute. The supernatant was mixed with HTRF Antibody (Human IL1 beta kit, Cisbio, 62HIL1BPEH) in assay plates (Greiner Bio-One, Cat #784075) and the assay plates were incubated in shading box at room temperature for 16-24 hours. HTRF signal was measured by EnVision (Perkinelmer) in accordance with the manufacturer's instructions.
The percentage of inhibition at 300 nM, 6 μM or 10 μM in the IL-1βTR-FRET assay was calculated by the following formula: Percentage of inhibition=[1−(HTRF signaltest−HTRF signalLow)/(HTRF signalHigh−HTRF signalLow)]*100, where HTRF signaltest is the HTRF signal in the well to which test compound is added, HTRF signalLow is the HTRF signal in the well to which 3 μM MCC-950 is added, and the HTRF signalHigh is the HTRF signal in the well to which DMSO is added.
Regarding `CCOc1nc2nn(-c3c(F)cc(OC)cc3C(F)F)cc2c(=O)[nH]1` [Example 149, 2-[2-(difluoromethyl)-6-fluoro-4-methoxyphenyl]-6-ethoxy-2,5-dihydro-4H-pyrazolo[3,4-d]pyrimidin-4-one], the inhibition at 0.3 µM is 99%. Consider `COc1nc2nn(-c3c(C)cc(C4CC4)cc3C(F)F)cc2c(=O)[nH]1` [Example 209, 2-[4-cyclopropyl-2-(difluoromethyl)-6-methylphenyl]-6-methoxy-2,5-dihydro-4H-pyrazolo[3,4-d]pyrimidin-4-one], for which the inhibition at 0.3 µM amounted to 103%. Same read-out and setting: for `Cc1nc2nn(-c3c(C)cc(C4CC4)cc3C)cc2c(=O)[nH]1` [Example 180, 2-(4-cyclopropyl-2,6-dimethylphenyl)-6-methyl-2,5-dihydro-4H-pyrazolo[3,4-d]pyrimidin-4-one] the value was 99%.

Take `Cc1cc(Br)cc(C)c1-n1cc2c(=O)[nH]c(C3(F)CC3)nc2n1` [Example 188, 2-(4-bromo-2,6-dimethylphenyl)-6-(1-fluorocyclopropyl)-2,5-dihydro-4H-pyrazolo[3,4-d]pyrimidin-4-one]: the inhibition at 0.3 µM is 99%. As to `Cc1cc(C2CC2)cc(C)c1-n1cc2c(=O)[nH]c(-c3cnn(C)c3)nc2n1` [Example 217, 2-(4-cyclopropyl-2,6-dimethylphenyl)-6-(1-methyl-1H-pyrazol-4-yl)-2,5-dihydro-4H-pyrazolo[3,4-d]pyrimidin-4-one], the inhibition at 0.3 µM was determined as 108%. On to `CCCc1ccc(-n2nc3nc(OCC)[nH]c(=O)c3c2C)c(O)c1` [Example 80, 6-ethoxy-2-(2-hydroxy-4-propylphenyl)-3-methyl-2,5-dihydro-4H-pyrazolo[3,4-d]pyrimidin-4-one], for which the inhibition at 0.3 µM came to 99%. As to `Cc1cc(Br)cc(C)c1-n1cc2c(=O)[nH]c([C@H]3CC3(F)F)nc2n1` [Example 189, 2-(4-bromo-2,6-dimethylphenyl)-6-(2,2-difluorocyclopropyl)-2,5-dihydro-4H-pyrazolo[3,4-d]pyrimidin-4-one], the inhibition at 0.3 µM came to 99%. As to `Cc1ccc(-n2cc3c(=O)[nH]c(O[C@H]4C[C@H](C#N)C4)nc3n2)c(C)c1` [Example 219, 3-{[2-(2,4-dimethylphenyl)-4-oxo-4,5-dihydro-2H-pyrazolo[3,4-d]pyrimidin-6-yl]oxy}cyclobutane-1-carbonitrile], the inhibition at 0.3 µM came out at 96%.

Take `Cc1ccc(-n2cc3c(=O)[nH]c(OCC(F)F)nc3n2)c(C)c1` [Example 220, 6-(2,2-difluoroethoxy)-2-(2,4-dimethylphenyl)-2,5-dihydro-4H-pyrazolo [3,4-d]pyrimidin-4-one]: the inhibition at 0.3 µM amounted to 71%. As to `Cc1cc(C2CC2)cc(C)c1-n1cc2c(=O)[nH]c(C3COCCO3)nc2n1` (racemic) [Example 232, 2-(4-cyclopropyl-2,6-dimethylphenyl)-6-(1,4-dioxan-2-yl)-2,5-dihydro-4H-pyrazolo[3,4-d]pyrimidin-4-one], the inhibition at 0.3 µM was found to be 97%. On the same count and under the same terms, next, `COCCOc1nc2nn(-c3c(C)cc(C4CC4)cc3C(F)F)cc2c(=O)[nH]1` [Example 210, 2-[4-cyclopropyl-2-(difluoromethyl)-6-methylphenyl]-6-(2-methoxyethoxy)-2,5-dihydro-4H-pyrazolo[3,4-d]pyrimidin-4-one]: 101%; `CCOc1nc2nn(-c3c(C)cc(C)cc3F)cc2c(=O)[nH]1` [Example 78, 6-ethoxy-2-(2-fluoro-4,6-dimethylphenyl)-2,5-dihydro-4H-pyrazolo[3,4-d]pyrimidin-4-one]: 98%.

Still in this assay, the particulars now being: Homo sapiens, THP-1, 6 μM, LPS priming, ATP activation, read-out: IL-1β inhibitory rate at 6 μM (%).
With `Nc1ccc(-n2cc3c(=O)[nH]c(COC(F)F)nc3n2)c(C(F)F)c1` [Example 261, 2-[4-amino-2-(difluoromethyl)phenyl]-6-[(difluoromethoxy)methyl]-2,5-dihydro-4H-pyrazolo[3,4-d]pyrimidin-4-one], the inhibition at 6 µM was determined as 80%. Consider `Cc1cc(C2CC2)cc(C)c1-n1cc2c(=O)[nH]c(CN3CCCO3)nc2n1` [Example 237, 2-(4-cyclopropyl-2,6-dimethylphenyl)-6-[(1,2-oxazolidin-2-yl)methyl]-2,5-dihydro-4H-pyrazolo[3,4-d]pyrimidin-4-one], for which the inhibition at 6 µM amounted to 98%.

As for `CCOc1nc2nn(-c3c(C#N)cc(C4CC4)cc3C(F)F)cc2c(=O)[nH]1` [Example 254, 5-cyclopropyl-3-(difluoromethyl)-2-(6-ethoxy-4-oxo-4,5-dihydro-2H-pyrazolo[3,4-d]pyrimidin-2-yl)benzonitrile], the inhibition at 6 µM amounted to 100%. Consider `Cc1cc(C2CC2)cc(C)c1-n1cc2c(=O)[nH]c(C3C=COCC3)nc2n1` (centres unmarked) [Example 306, 2-(4-cyclopropyl-2,6-dimethylphenyl)-6-(3,4-dihydro-2H-pyran-4-yl)-2,5-dihydro-4H-pyrazolo[3,4-d]pyrimidin-4-one], for which the inhibition at 6 µM was 98%. `Cc1cc(C2CC2)cc(C)c1-n1cc2c(=O)[nH]c(CO)nc2n1` [Example 304, 2-(4-cyclopropyl-2,6-dimethylphenyl)-6-(hydroxymethyl)-2,5-dihydro-4H-pyrazolo[3,4-d]pyrimidin-4-one]: the inhibition at 6 µM is 103%. Consider `Cc1cc(C2CC2)cc(C)c1-n1cc2c(=O)[nH]c(CCOCc3ccccc3)nc2n1` [Example 268, 6-[2-(benzyloxy)ethyl]-2-(4-cyclopropyl-2,6-dimethylphenyl)-2,5-dihydro-4H-pyrazolo[3,4-d]pyrimidin-4-one], for which the inhibition at 6 µM came to 98%.

Regarding `Cc1cc(C2CC2)cc(C)c1-n1cc2c(=O)[nH]c(C3=CCOCC3)nc2n1` [Example 307, 2-(4-cyclopropyl-2,6-dimethylphenyl)-6-(3,6-dihydro-2H-pyran-4-yl)-2,5-dihydro-4H-pyrazolo[3,4-d]pyrimidin-4-one], the inhibition at 6 µM came out at 108%. Consider `Cc1cc(C2CC2)cc(C)c1-n1cc2c(=O)[nH]c([C@H]3C[C@H](F)C3)nc2n1` [Example 255, 2-(4-cyclopropyl-2,6-dimethylphenyl)-6-[(1r,3r)-3-fluorocyclobutyl]-2,5-dihydro-4H-pyrazolo [3,4-d]pyrimidin-4-one], for which the inhibition at 6 µM was 98%. Turning to `Cc1cc(C2CC2)cc(Cl)c1-n1cc2c(=O)[nH]c(COC(F)F)nc2n1` [Example 294, 2-(2-chloro-4-cyclopropyl-6-methylphenyl)-6-[(difluoromethoxy)methyl]-2,5-dihydro-4H-pyrazolo[3,4-d]pyrimidin-4-one], the inhibition at 6 µM came to 106%. Take `Cc1cc(C2CC2)cc(C)c1-n1cc2c(=O)[nH]c(-c3ncc(C(F)(F)F)[nH]3)nc2n1` [Example 242, 2-(4-cyclopropyl-2,6-dimethylphenyl)-6-[5-(trifluoromethyl)-1H-imidazol-2-yl]-2,5-dihydro-4H-pyrazolo[3,4-d]pyrimidin-4-one]: the inhibition at 6 µM is 104%.

As for `O=c1[nH]c(COC(F)F)nc2nn(-c3ccc(Br)cc3C(F)F)cc12` [Example 267, 2-[4-bromo-2-(difluoromethyl)phenyl]-6-[(difluoromethoxy)methyl]-2,5-dihydro-4H-pyrazolo[3,4-d]pyrimidin-4-one], the inhibition at 6 µM amounted to 101%. On to `Cc1cc(C2CC2)cc(C)c1-n1cc2c(=O)[nH]c(-c3cc4n(n3)CCO4)nc2n1` [Example 270, 2-(4-cyclopropyl-2,6-dimethylphenyl)-6-(2,3-dihydropyrazolo[5,1-b][1,3]oxazol-6-yl)-2,5-dihydro-4H-pyrazolo[3,4-d]pyrimidin-4-one], for which the inhibition at 6 µM was determined as 98%. As to `Cc1cc(C2CC2)cc(C)c1-n1cc2c(=O)[nH]c([C@H]3CCCCO3)nc2n1` [Example 233, 2-(4-cyclopropyl-2,6-dimethylphenyl)-6-(oxan-2-yl)-2,5-dihydro-4H-pyrazolo[3,4-d]pyrimidin-4-one], the inhibition at 6 µM amounted to 93%.

The assay is the same for the next values; noted with them: Homo sapiens, THP-1, 10 μM, LPS priming, ATP activation, read-out: IL-1β inhibitory rate at 10 μM (%).
Turning to `Cc1cc(C2CC2)cc(C(F)F)c1-n1cc2c(=O)[nH]c([C@H]3COCCO3)nc2n1` [Example 325, 2-[4-cyclopropyl-2-(difluoromethyl)-6-methylphenyl]-6-[(2R)-1,4-dioxan-2-yl]-2,5-dihydro-4H-pyrazolo[3,4-d]pyrimidin-4-one or 2-[4-cyclopropyl-2-(difluoromethyl)-6-methylphenyl]-6-[(2S)-1,4-dioxan-2-yl]-2,5-dihydro-4H-pyrazolo[3,4-d]pyrimidin-4-one], the inhibition at 10 µM is 100%.
